# Patent US9131688B2, “Strigolactam derivatives as plant growth regulating compounds” (Syngenta Participations AG, priority 2011, dated 2015)
# Experiments:
# Assay type in all cases: in vivo
# [1] = tested on: Orobanche cumana Wallr. seeds (race 'F'); test: Germination of preconditioned Orobanche cumana seeds on glass fiber filter paper in petri dishes; settings: for Germination (%): mean, N = 5 x 100 seeds; for Germination inducing effect on Orobanche cumana seeds (summary in words): summary of Tables 3 to 6
# Procedure: The effect of compounds of Formula (I) on germination of Orobanche cumana Wallr. seeds was evaluated on glass fiber filter paper (GFFP) in petri dishes. Seeds were preconditioned at moisture and suitable temperature to become responsive to the specific chemical germination stimulants.
# Test compounds were dissolved in DMSO (10 000 mg 1^−1) and stored at room temperature in a desiccators with desiccants. The stock solutions were dissolved with deionised water to the appropriate final test concentration.
# Seeds of O. cumana race ‘F’ were collected from a sunflower field in Manzanilla (Seville, Spain) in 2006 (IN146) and 2008 (IN153), respectively and stored at room temperature. To separate seeds from heavy organic debris, a modified sucrose floatation technique as described by Hartman & Tanimonure (Plant Disease (1991), 75, p. 494) was applied. Seeds were filled into a separation funnel and stirred in water. When seeds floated to the surface, the water fraction containing heavy debris was discarded. Seeds were re-suspended in 2.5M sucrose solution (specific gravity of 1.20) and heavy debris was allowed to settle down for 60 min. After removing debris, seeds were disinfected in 1% sodium hypochlorite solution and 0.025% (v/v) Tween 20 for 2 min. The seeds were decanted onto two layers of cheesecloth, rinsed with sterile deionised water and re-suspended in sterile deionised water. Two ml of the seed suspension containing approximately 150-400 seeds were spread evenly on two layers of sterile glass fiber filter paper disc ([…]) in Petri dishes (Ø9 cm). After wetting the discs with 3 ml sterile deionised water, petri dishes were sealed with parafilm. Seeds were incubated for 10 days at 20° C. in the dark for seed conditioning. The upper disc with conditioned seeds was briefly dried, transferred to a petri dish lined with a dry GFFP disc, and wetted with 6 ml of the appropriate test solution. The compounds of formula (I) were tested at concentrations of 0.001, 0.01, and 0.1 mg 1^−1. The strigolactone analogue GR24 was included as positive control and 0.001% DMSO as negative control. All treatments were tested in five replicates. Seeds were re-incubated at 20° C. in the dark and examined for germination 10 days later. The radicles of germinated seeds were stained for 5 min with blue ink (MIGROS, Switzerland) in 5% acetic acid according to Long et al. Seed Science Research (2008), 18, p. 125). After staining, seeds were photographed using a camera stand mounted with a digital SLR camera (Canon EOS 5D). Germination of 100 seeds per replicate was evaluated on digital images. Seeds were considered germinated when the radicle protruded from the seed coat.
# [2] = tested on: Brassica oleracea cv Botrytis (common cauliflower) seeds; test: Standard paper germination test for Brassica (cauliflower seeds, suboptimal conditions); settings: 25 μM, 20° C., dark; for stimulation (extra germination compared to the DMSO treatment, expressed as percentage of the DMSO treatment): tropical cauliflower 3C150, seed batch 11B295; for acceleration (hours faster than the DMSO treatment to reach 50% of total germination) / t50 (time needed to reach 50% of total germination): tropical cauliflower 3C150, seed batch 11B552
# Procedure: The effect of compounds of Formula (I) on the germination of Brassica oleracea cv Botrytis or common cauliflower was tested on two types of cauliflowers: temperate types and tropical types. These two types were chosen because they display different sensitivities to the light conditions and temperature during germination. Germination of a sensitive temperate type is inhibited by light at 10° C. while for the tropical types germination at 20° is stimulated by the presence of light.
# The temperate seed batches tested are part of commercially produced seed batches of various varieties which are known to be sensitive to light at 10° C. These seeds were harvested and cleaned according standard commercial procedures. Ready seed batches were used (Ready indicates the processing level of these seeds: they have been cleaned and sized but received no other treatments). The tropical seed batches tested are part of seed batches produced as basic seed (for maintenance of the parental line) and were processed accordingly.
# Germination was assessed using the standard paper germination test for Brassica: Fifty seeds were placed on blue germination paper, which was moistened with the appropriate solutions, in closed oblong germination boxes. Each condition was tested in duplo. Germination boxes were placed in controlled germination cabinets with the appropriate temperature and light conditions. Germination of seeds was counted at regular intervals. Seeds were considered to be germinated when the radical had protruded the testa and endosperm (radical size approximately 1 mm). Germination kinetics were analyzed using the Germinator analysis tool in order to obtain the parameters: Gmax (maximum germination) and t50 (time needed to reach 50% of the Gmax). The Germinator analysis tool is an add-in in for excel developed by the University of Wageningen: Joosen, R. V. L., J. Kodde, et al. (2010). (“Germinator: A Software Package for High-Throughput Scoring and Curve Fitting of Arabidopsis Seed Germination.” The Plant Journal 62(1): 148-159.)
# Test compounds were dissolved in DMSO at a concentration of 50 mM and stored at −20° C. The strigolactone analogue GR24 (commercially available as a racemic mixture of 2 diastereoisomers, referred to as “synthetic strigolactone GR-24” and first prepared by Johnson A. W. & all, Journal of the Chemical Society, Perkin Transactions 1, 1981, page 1734-1743) was included as positive control. Germination solutions were prepared by diluting the stock solutions with demineralized water till 25 μM. As control solutions demineralized water and a 0.05% v/v DMSO solution were used.
# [3] = tested on: Orobanche cumana Wallr. seeds (race 'F'); test: Germination of preconditioned Orobanche cumana seeds on glass fiber filter paper in petri dishes; settings: Table 5; 1.0 mg l^-1; seed lot IN153; mean, N = 5 x 100 seeds
# [4] = Table 3, 0.001 mg l^-1, seed lot IN146, 10 days at 20° C. in the dark
# [5] = Table 3, 0.01 mg l^-1, seed lot IN146
# [6] = Table 3, 0.1 mg l^-1, seed lot IN146
# [7] = Table 4, 0.001 mg l^-1, seed lot IN153
# [8] = Table 4, 0.01 mg l^-1, seed lot IN153
# [9] = Table 4, 0.1 mg l^-1, seed lot IN153
# [10] = Table 5, 0.01 mg l^-1, seed lot IN153
# [11] = Table 5, 0.1 mg l^-1, seed lot IN153
# [12] = Table 6, 0.001 mg l^-1, seed lot IN153
# [13] = Table 6, 0.01 mg l^-1, seed lot IN153
# [14] = Table 6, 0.1 mg l^-1, seed lot IN153
# [15] = Table 7, tropical cauliflower 3C150, seed batch 11B295 (Chili 2011)
# [16] = Table 8, tropical cauliflower 3C150, seed batch 11B552 (South Africa 2010)
smiles,measurement,setting,value
"CC1=C[C@H](O/C=C2/C(=O)O[C@@H]3c4ccccc4C[C@H]23)OC1=O [GR24, reference compound]",Germination (%),[1]; [4],20.4%
same,Germination (%),[1]; [5],61.0%
same,Germination (%),[1]; [6],86.2%
same,Germination (%),[1]; [7],67%
same,Germination (%),[1]; [8],65%
same,Germination (%),[1]; [9],78.4%
same,Germination (%),"[1]; Table 5, 0.001 mg l^-1, seed lot IN153",88%
same,Germination (%),[1]; [10],86.6%
same,Germination (%),[1]; [11],95.2%
same,Germination (%),[1]; [12],26%
same,Germination (%),[1]; [13],51%
same,Germination (%),[1]; [14],84.2%
same,Gmax (total germination),[2]; [15],73.0%
same,"stimulation (extra germination compared to the DMSO treatment, expressed as percentage of the DMSO treatment)",[2]; Table 7,140.0%
same,Gmax (total germination),[2]; [16],100.0%
same,acceleration (hours faster than the DMSO treatment to reach 50% of total germination),[2]; Table 8,8.7 h
same,t50 (time needed to reach 50% of total germination),[2]; Table 8,72.2 h
"CC1=CC(O/C=C2/C(=O)N[C@@H]3C4=C(CCCC4(C)C)C[C@H]23)OC1=O (stereo partly drawn) [Compound P1, (3E,3aR,8bS)-8,8-dimethyl-3-[(4-methyl-5-oxo-2H-furan-2-yl)oxymethylene]-3a,4,5,6,7,8b-hexahydro-1H-indeno[1,2-b]pyrrol-2-one]",Germination (%),[1]; [4],88%
same,Germination (%),[1]; [5],88%
same,Germination (%),[1]; [6],88.4%
same,Germination inducing effect on Orobanche cumana seeds (summary in words),[1],germination inducing effect
same,Gmax (total germination),[2]; [15],55.0%
same,"stimulation (extra germination compared to the DMSO treatment, expressed as percentage of the DMSO treatment)",[2]; Table 7,80.0%
same,Gmax (total germination),[2]; [16],95.0%
same,acceleration (hours faster than the DMSO treatment to reach 50% of total germination),[2]; Table 8,6.6 h
same,t50 (time needed to reach 50% of total germination),[2]; Table 8,74.3 h
"CC1=CC(O/C=C2/C(=O)N[C@@H]3C4=CCC[C@H]4C[C@H]23)OC1=O (some centres unmarked) [Compound P4, 3E 3-[[4-methyl-5-oxo-2H-furan-2-yl]oxymethylene]-1,3a,4,4a,5,6,7b-hexahydropentaleno[1,2-b]pyrrol-2-one]",Germination (%),[1]; [12],73.4%
same,Germination (%),[1]; [13],82.6%
same,Germination (%),[1]; [14],68.4%
same,Germination inducing effect on Orobanche cumana seeds (summary in words),[1],germination inducing effect
"CC1=C[C@H](O/C=C2/C(=O)N(C(=O)OC(C)(C)C)[C@@H]3C4=CCC[C@H]4C[C@H]23)OC1=O [Compound P5, Tert-butyl (3E,3aR,4aS,7bS)-3-[[4-methyl-5-oxo-2H-furan-2-yl]oxymethylene]-2-oxo-3a,4,4a,5,6,7b-hexahydropentaleno[1,2-b]pyrrole-1-carboxylate]",Germination (%),[1]; [12],90.6%
same,Germination (%),[1]; [13],80.8%
same,Germination (%),[1]; [14],89.6%
"CC1=C[C@H](O/C=C2/C(=O)N[C@@H]3C4=CCCC[C@H]4C[C@H]23)OC1=O [Compound P2, (3E,3aR,4aS,8bS)-3-[[(2R)-4-methyl-5-oxo-2H-furan-2-yl]oxymethylene]-1,3a,4,4a,5,6,7,8b-octahydroindeno[1,2-b]pyrrol-2-one]",Germination (%),[1]; [7],92.6%
same,Germination (%),[1]; [8],91.0%
same,Germination (%),[1]; [9],91.0%
same,Germination inducing effect on Orobanche cumana seeds (summary in words),[1],germination inducing effect
"CC1=C[C@@H](O/C=C2/C(=O)N[C@@H]3C4=CCCC[C@H]4C[C@H]23)OC1=O [Compound B2, (3E,3aR,4aS,8bS)-3-[[(2S)-4-methyl-5-oxo-2H-furan-2-yl]oxymethylene]-1,3a,4,4a,5,6,7,8b-octahydroindeno[1,2-b]pyrrol-2-one]",Germination (%),[3],91.8%
same,Germination (%),[1]; [10],80.4%
same,Germination (%),[1]; [11],89.2%
same,Germination inducing effect on Orobanche cumana seeds (summary in words),[1],germination inducing effect
